Measurements taken from US20190309272A1, “Genetically Modified Cell Lines Including a TP53 Modification and Methods of Use” (UNIVERSITY OF SOUTH CAROLINA, priority 2018, published 2019).
Counter-ions that a name gives are not always drawn. Like-named read-outs stand apart in the source and are kept apart here.

What was measured:
Format in all cases: cell-based, Human
MCF7 WT Parental pool = experiment: Drug screening, resazurin, MCF7 wild type parental pool
MCF7 TP53 KO 3.4 pool = experiment: Drug screening, resazurin, TP53 KO 3.4 pool
MCF7 TP53 KO 5.6 pool = experiment: Drug screening, resazurin, TP53 KO 5.6 pool
[1] = ten-day drug treatment, 156.25 nM to 10 μM, resazurin fluorescence

Compound | MCF7 WT Parental pool (AUC) (MCF7 WT Parental pool; [1]) | TP53 KO 3.4 pool (AUC) (MCF7 TP53 KO 3.4 pool; [1]) | TP53 KO 5.6 pool (AUC) (MCF7 TP53 KO 5.6 pool; [1]) | MCF7 WT Parental pool (AUC) (MCF7 WT Parental pool) | TP53 KO 3.4 pool (AUC) (MCF7 TP53 KO 3.4 pool) | TP53 KO 5.6 pool (AUC) (MCF7 TP53 KO 5.6 pool)
C[C@]12CC[C@H](O)CC1=CC[C@@H]1[C@@H]2CC[C@]2(C)C(c3cccnc3)=CC[C@@H]12 [Abiraterone] | 8.378 | 8.785 | 9.254 | – | – | –
CN(C)C/C=C/C(=O)Nc1cc2c(Nc3ccc(F)c(Cl)c3)ncnc2cc1O[C@H]1CCOC1 [Afatanib] | 2.734 | 2.48 | 2.139 | – | – | –
CCc1cc2c(cc1N1CCC(N3CCOCC3)CC1)C(C)(C)c1[nH]c3cc(C#N)ccc3c1C2=O [Alectinib] | 5.763 | 4.51 | 2.7 | – | – | –
CN(C)c1nc(N(C)C)nc(N(C)C)n1 [Altretamine] | 8.059 | 8.874 | 8.473 | – | – | –
NCCCNCCSP(=O)(O)O [Amifostine] | 8.456 | 9.108 | 9.73 | – | – | –
NCC(=O)CCC(=O)O [Aminolevulinic Acid] | 8.749 | 9.101 | 8.787 | – | – | –
CC(C)(C#N)c1cc(Cn2cncn2)cc(C(C)(C)C#N)c1 [Anastrozole] | 8.01 | 8.067 | 8.828 | – | – | –
CNC(=O)c1ccccc1Sc1ccc2c(/C=C/c3ccccn3)n[nH]c2c1 [Axitinib] | 2.581 | 3.743 | 3.786 | – | – | –
Nc1ncn([C@@H]2O[C@H](CO)[C@@H](O)[C@H]2O)c(=O)n1 [Azactidine] | 8.861 | 9.05 | 6.373 | – | – | –
O=C(/C=C/c1cccc(S(=O)(=O)Nc2ccccc2)c1)NO [Belinostat] | 1.423 | 1.525 | 1.322 | – | – | –
Cn1c(CCCC(=O)O)nc2cc(N(CCCl)CCCl)ccc21 [Bendamustine Hydrochloride] | – | – | – | 9.021 | 9.503 | 10.23
CC(C)C[C@H](NC(=O)[C@H](Cc1ccccc1)NC(=O)c1cnccn1)B(O)O [Bortezomib] | 0.6974 | 0.673 | 0.7486 | – | – | –
COc1cc(Nc2c(C#N)cnc3cc(OCCCN4CCN(C)CC4)c(OC)cc23)c(Cl)cc1Cl [Bosutinib] | 8.686 | 9.254 | 9.588 | – | – | –
CS(=O)(=O)OCCCCOS(C)(=O)=O [Busulfan] | 9.118 | 9.336 | 8.834 | – | – | –
CO[C@H]1C(=O)[C@]2(C)[C@@H](OC)C[C@H]3OC[C@@]3(OC(C)=O)[C@H]2[C@H](OC(=O)c2ccccc2)[C@]2(O)C[C@H](OC(=O)[C@H](O)[C@@H](NC(=O)OC(C)(C)C)c3ccccc3)C(C)=C1C2(C)C [Cabazitaxel] | 1.406 | 1.658 | 1.713 | – | – | –
COc1cc2nccc(Oc3ccc(NC(=O)C4(C(=O)Nc5ccc(F)cc5)CC4)cc3)c2cc1OC [Cabozantinib] | 4.126 | 4.376 | 4.52 | – | – | –

Compound | MCF7 WT Parental pool (AUC) (MCF7 WT Parental pool; [1]) | TP53 KO 3.4 pool (AUC) (MCF7 TP53 KO 3.4 pool; [1]) | TP53 KO 5.6 pool (AUC) (MCF7 TP53 KO 5.6 pool; [1]) | MCF7 WT Parental pool (AUC) (MCF7 WT Parental pool) | TP53 KO 3.4 pool (AUC) (MCF7 TP53 KO 3.4 pool) | TP53 KO 5.6 pool (AUC) (MCF7 TP53 KO 5.6 pool)
CCCCCOC(=O)Nc1nc(=O)n([C@@H]2O[C@H](C)[C@@H](O)[C@H]2O)cc1F [Capecitabine] | 9.004 | 9.208 | 9.284 | – | – | –
N.N.O=C([O-])C1(C(=O)[O-])CCC1.[Pt+2] [Carboplatin] | 8.83 | 9.302 | 8.343 | – | – | –
CC(C)C[C@H](NC(=O)[C@H](CCc1ccccc1)NC(=O)CN1CCOCC1)C(=O)N[C@@H](Cc1ccccc1)C(=O)N[C@@H](CC(C)C)C(=O)[C@@]1(C)CO1 [Carfilzomib] | 0.6359 | 0.6462 | 0.6678 | – | – | –
O=NN(CCCl)C(=O)NCCCl [Carmustine] | 9.622 | 9.826 | 9.965 | – | – | –
Cc1cc(Nc2ncc(Cl)c(Nc3ccccc3S(=O)(=O)C(C)C)n2)c(OC(C)C)cc1C1CCNCC1 [Ceritinib] | 1.637 | 1.482 | 1.421 | – | – | –
O=C(O)CCCc1ccc(N(CCCl)CCCl)cc1 [Chlorambucil] | 16.08 | 16.5 | 17.6 | – | – | –
N.N.[Cl][Pt][Cl] [Cisplatin] | 7.335 | 6.27 | 7.44 | – | – | –
Nc1ccn([C@@H]2O[C@H](CO)[C@@H](O)[C@@H]2O)c(=O)n1 [Cytarabine Hydrochloride] | 4.771 | – | – | – | – | –
C=C1C[C@@H]2[C@H](CC[C@]3(C)C(=O)CC[C@@H]23)[C@@]2(C)C=CC(=O)C=C12 [Exemestane] | 8.564 | – | – | – | – | –
CC(=O)[C@]1(O)Cc2c(O)c3c(c(O)c2[C@@H](O[C@H]2C[C@H](N)[C@H](O)[C@H](C)O2)C1)C(=O)c1ccccc1C3=O [Idarubicin Hydrochloride] | 0.958 | – | – | – | – | –
O=C1c2c(O)ccc(O)c2C(=O)c2c(NCCNCCO)ccc(NCCNCCO)c21 [Mitoxantrone] | 2.338 | – | – | – | – | –
OC[C@H]1O[C@@H](n2cnc3c2NC=NC[C@H]3O)C[C@@H]1O [Pentostatin] | 10.31 | – | – | – | – | –
CNC(=O)c1cc(Oc2ccc(NC(=O)Nc3ccc(Cl)c(C(F)(F)F)c3)cc2)ccn1 [Sorafenib] | 3.981 | – | – | – | – | –
CO[C@H]1C[C@@H]2CC[C@@H](C)[C@@](O)(O2)C(=O)C(=O)N2CCCC[C@H]2C(=O)O[C@H]([C@H](C)C[C@@H]2CC[C@@H](OC(=O)C(C)(CO)CO)[C@H](OC)C2)CC(=O)[C@H](C)/C=C(\C)[C@@H](O)[C@@H](OC)C(=O)[C@H](C)C[C@H](C)/C=C/C=C/C=C/1C [Temsirolimus] | 2.486 | – | – | – | – | –
Nc1nc2nc[nH]c2c(=S)[nH]1 [Thioguanine] | 4.122 | – | – | – | – | –
Dabrafenib Mesylate | 14.9 | 14.73 | – | – | – | –
